Reference: PubChem BioAssay (NCI)
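Cultured in 96-well plates, cells were exposed to test compound for 48 hours across five concentrations. At the GI50, growth is halved. TGI: concentration producing complete growth inhibition.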

Assays:
Experiment in all cases: NCI tumour cell line growth inhibition, 48 h
SNB-75 CNS = tested on: SNB-75 CNS
SK-MEL-5 melanoma = tested on: SK-MEL-5 melanoma
MDA-MB-231 breast = tested on: MDA-MB-231 breast
ACHN renal = tested on: ACHN renal
HCT-15 colon = tested on: HCT-15 colon
MDA-MB-435 = tested on: MDA-MB-435
786-0 renal = tested on: 786-0 renal
CAKI-1 renal = tested on: CAKI-1 renal
NCI/ADR-RES ovarian = tested on: NCI/ADR-RES ovarian
HOP-92 NSCLC = tested on: HOP-92 NSCLC

| SMILES | TGI (SNB-75 CNS) [µM] | TGI (SK-MEL-5 melanoma) [µM] | TGI (MDA-MB-231 breast) [µM] | TGI (ACHN renal) [µM] | TGI (HCT-15 colon) [µM] | TGI (MDA-MB-435) [µM] | TGI (786-0 renal) [µM] | TGI (CAKI-1 renal) [µM] | TGI (NCI/ADR-RES ovarian) [µM] | TGI (HOP-92 NSCLC) [µM] | GI50 (SNB-75 CNS) [µM] | GI50 (SK-MEL-5 melanoma) [µM] | GI50 (MDA-MB-231 breast) [µM] | GI50 (ACHN renal) [µM] | GI50 (MDA-MB-435) [µM] | GI50 (HOP-92 NSCLC) [µM] | GI50 (CAKI-1 renal) [µM] | GI50 (NCI/ADR-RES ovarian) [µM] |
| --- | --- | --- | --- | --- | --- | --- | --- | --- | --- | --- | --- | --- | --- | --- | --- | --- | --- | --- |
| Nc1nc(-c2ccccc2)cc(-c2ccc(F)cc2)c1-c1ccc(Cl)cc1 | > 100 | > 100 | > 100 | > 100 | > 100 | > 100 | > 100 | > 100 | > 100 | – | – | – | – | – | – | – | – | – |
| O=C(OCc1ccccc1[N+](=O)[O-])N1c2ccccc2[C@@]23O[C@]24CCC[C@H]3C#C/C=C\C#C[C@H]14 | – | > 100 | > 100 | > 100 | > 100 | > 100 | > 100 | > 100 | > 100 | > 100 | – | – | – | – | – | – | – | – |
| O=C1NC(N2CCOCC2)=N/C1=C\c1ccccc1 | > 100 | > 100 | > 100 | > 100 | > 100 | > 100 | > 100 | > 100 | > 100 | > 100 | – | – | – | – | – | – | – | – |
| CC(=O)O/N=C1\C=Cc2c(no[n+]2[O-])C1=O | 35.5 | 31.6 | 34.4 | 30.9 | 36.4 | 36 | 33.5 | 35.8 | 68.1 | – | – | – | – | – | – | – | – | – |
| Nc1c(Cl)ncnc1NCC1(CO)CCC1 | > 100 | > 100 | > 100 | > 100 | > 100 | > 100 | > 100 | – | > 100 | > 100 | – | – | – | – | – | – | – | – |
| CN(C)CCNc1ccccn1 | – | > 100 | > 100 | > 100 | > 100 | > 100 | > 100 | > 100 | > 100 | > 100 | – | – | – | – | – | – | – | – |
| COC(=O)c1ccc2c(c1)CC1(C2)Cc2ccc3c(c2C1)CCC3 (configuration not stated) | > 100 | 33.3 | 22.1 | > 100 | > 100 | 14.3 | > 100 | – | – | > 100 | – | – | – | – | – | – | – | – |
| CS(=O)(=O)c1nc(-c2cc3c(c(S(C)(=O)=O)n2)CCC3)cc2c1CCC2 | 53.4 | > 100 | > 100 | > 100 | > 100 | > 100 | > 100 | > 100 | > 100 | – | – | – | – | – | – | – | – | – |
| COc1cc(/C=C/C(=O)OC[C@]23O[C@H]2[C@@H](OC2OC(C)C(O)C(O)C2O)C2C=CO[C@@H](OC4OC(CO)C(O)C(O)C4O)C23)ccc1O (some centres not stated) | > 100 | > 100 | > 100 | > 100 | > 100 | > 100 | > 100 | – | > 100 | > 100 | – | – | – | – | – | – | – | – |
| O=C(/C=C/c1ccco1)c1ccc(Nc2ccnc3cc(Cl)ccc23)cc1 | > 100 | > 100 | 34.7 | > 100 | – | > 100 | – | > 100 | > 100 | 62 | > 100 | 12 | 12.8 | > 100 | > 100 | 15 | > 100 | 75.8 |
